Test results published in ChEMBL document CHEMBL3758169, “4-Aminoindazolyl-dihydrofuro[3,4-d]pyrimidines as non-covalent inhibitors of mutant epidermal growth factor receptor tyrosine kinase” (Bioorg Med Chem Lett, 2016).

Columns and labels:
[1] = Apparent permeability from the apical to basolateral side in MDCK cells; assay type: ADME, cell-based, Canis lupus familiaris; conditions: dog
[2] = molecular target: Tyrosine-protein kinase ZAP-70 (Homo sapiens) (UniProt P43403); assay: Inhibition of ZAP70 (unknown origin) at 100 nM
[3] = molecular target: RAC-alpha serine/threonine-protein kinase (Homo sapiens) (UniProt P31749); assay: Inhibition of AKT1 (unknown origin) at 100 nM
[4] = molecular target: Tyrosine-protein kinase ITK/TSK (Homo sapiens) (UniProt Q08881); assay: Inhibition of ITK (unknown origin) at 100 nM
[5] = molecular target: Rho-associated protein kinase 1 (Homo sapiens) (UniProt Q13464); assay: Inhibition of ROCK1 (unknown origin) at 100 nM
[6] = molecular target: Serine/threonine-protein kinase Nek1 (Homo sapiens) (UniProt Q96PY6); assay: Inhibition of NEK1 (unknown origin) at 100 nM
[7] = molecular target: CDK8/Cyclin C (Homo sapiens) (UniProt P49336+P24863); assay: Inhibition of CDK8/cyclinC (unknown origin) at 100 nM; assay type: protein-complex assay
[8] = molecular target: Mitogen-activated protein kinase 1 (Homo sapiens) (UniProt P28482); assay: Inhibition of ERK2 (unknown origin) at 100 nM
Mitogen-activated protein kinase 1 (Homo sapiens), sequence (P28482 whole entry): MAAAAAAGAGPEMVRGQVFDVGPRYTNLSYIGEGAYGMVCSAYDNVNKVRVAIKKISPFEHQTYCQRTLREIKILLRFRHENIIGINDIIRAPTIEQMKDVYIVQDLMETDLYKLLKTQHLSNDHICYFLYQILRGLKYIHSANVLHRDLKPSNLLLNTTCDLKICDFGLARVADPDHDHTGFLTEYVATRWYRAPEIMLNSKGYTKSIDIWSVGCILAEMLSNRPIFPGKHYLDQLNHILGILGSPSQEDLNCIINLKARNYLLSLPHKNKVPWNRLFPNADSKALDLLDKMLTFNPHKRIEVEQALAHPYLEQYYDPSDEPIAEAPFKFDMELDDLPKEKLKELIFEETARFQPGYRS

[9] = molecular target: Tyrosine-protein kinase BTK (Homo sapiens) (UniProt Q06187); assay: Inhibition of BTK (unknown origin) at 100 nM
Tyrosine-protein kinase BTK (Homo sapiens), sequence (Q06187 whole entry): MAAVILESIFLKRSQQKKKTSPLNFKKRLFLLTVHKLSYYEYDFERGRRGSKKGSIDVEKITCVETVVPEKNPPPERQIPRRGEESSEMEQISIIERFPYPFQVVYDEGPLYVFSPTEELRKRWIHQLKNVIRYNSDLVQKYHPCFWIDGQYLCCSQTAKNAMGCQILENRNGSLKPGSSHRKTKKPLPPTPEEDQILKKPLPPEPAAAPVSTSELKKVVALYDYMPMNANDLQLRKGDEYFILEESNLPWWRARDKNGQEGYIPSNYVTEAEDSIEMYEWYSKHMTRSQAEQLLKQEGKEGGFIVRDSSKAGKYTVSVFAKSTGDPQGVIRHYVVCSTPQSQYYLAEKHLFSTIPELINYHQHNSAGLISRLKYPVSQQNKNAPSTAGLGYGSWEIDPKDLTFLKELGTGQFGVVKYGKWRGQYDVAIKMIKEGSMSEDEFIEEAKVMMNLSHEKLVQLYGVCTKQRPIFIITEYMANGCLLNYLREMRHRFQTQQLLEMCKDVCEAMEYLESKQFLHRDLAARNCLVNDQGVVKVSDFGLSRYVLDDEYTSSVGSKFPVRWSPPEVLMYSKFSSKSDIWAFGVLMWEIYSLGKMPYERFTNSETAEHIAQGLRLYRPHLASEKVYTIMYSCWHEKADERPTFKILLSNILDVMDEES

[10] = molecular target: Epidermal growth factor receptor (Homo sapiens, UniProt P00533); assay: Inhibition of EGFR (unknown origin) at 100 nM
[11] = molecular target: Non-receptor tyrosine-protein kinase TYK2 (Homo sapiens) (UniProt P29597); assay: Inhibition of TYK2 (unknown origin) at 100 nM
[12] = molecular target: Tyrosine-protein kinase Yes (Homo sapiens) (UniProt P07947); assay: Inhibition of YES (unknown origin) at 100 nM
Tyrosine-protein kinase Yes (Homo sapiens), sequence (P07947 2-543 limits assumed): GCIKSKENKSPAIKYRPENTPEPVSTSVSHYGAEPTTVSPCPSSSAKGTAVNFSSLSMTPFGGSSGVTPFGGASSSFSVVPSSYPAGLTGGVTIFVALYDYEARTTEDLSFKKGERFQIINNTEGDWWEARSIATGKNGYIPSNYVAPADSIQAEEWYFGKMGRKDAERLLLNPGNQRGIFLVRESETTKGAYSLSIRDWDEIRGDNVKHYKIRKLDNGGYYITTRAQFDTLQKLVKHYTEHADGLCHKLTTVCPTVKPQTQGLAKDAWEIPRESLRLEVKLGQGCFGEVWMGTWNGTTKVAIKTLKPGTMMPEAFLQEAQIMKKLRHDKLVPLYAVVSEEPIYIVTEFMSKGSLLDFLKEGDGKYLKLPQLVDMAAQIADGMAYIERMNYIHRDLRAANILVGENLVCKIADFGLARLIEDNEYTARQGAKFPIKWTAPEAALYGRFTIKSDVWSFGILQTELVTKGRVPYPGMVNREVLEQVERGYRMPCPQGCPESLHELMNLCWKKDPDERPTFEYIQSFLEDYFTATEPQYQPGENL

[13] = molecular target: Insulin-like growth factor 1 receptor (Homo sapiens) (UniProt P08069); assay: Inhibition of IGF1R (unknown origin) at 100 nM
Insulin-like growth factor 1 receptor (Homo sapiens), sequence (P08069 31-736 limits assumed): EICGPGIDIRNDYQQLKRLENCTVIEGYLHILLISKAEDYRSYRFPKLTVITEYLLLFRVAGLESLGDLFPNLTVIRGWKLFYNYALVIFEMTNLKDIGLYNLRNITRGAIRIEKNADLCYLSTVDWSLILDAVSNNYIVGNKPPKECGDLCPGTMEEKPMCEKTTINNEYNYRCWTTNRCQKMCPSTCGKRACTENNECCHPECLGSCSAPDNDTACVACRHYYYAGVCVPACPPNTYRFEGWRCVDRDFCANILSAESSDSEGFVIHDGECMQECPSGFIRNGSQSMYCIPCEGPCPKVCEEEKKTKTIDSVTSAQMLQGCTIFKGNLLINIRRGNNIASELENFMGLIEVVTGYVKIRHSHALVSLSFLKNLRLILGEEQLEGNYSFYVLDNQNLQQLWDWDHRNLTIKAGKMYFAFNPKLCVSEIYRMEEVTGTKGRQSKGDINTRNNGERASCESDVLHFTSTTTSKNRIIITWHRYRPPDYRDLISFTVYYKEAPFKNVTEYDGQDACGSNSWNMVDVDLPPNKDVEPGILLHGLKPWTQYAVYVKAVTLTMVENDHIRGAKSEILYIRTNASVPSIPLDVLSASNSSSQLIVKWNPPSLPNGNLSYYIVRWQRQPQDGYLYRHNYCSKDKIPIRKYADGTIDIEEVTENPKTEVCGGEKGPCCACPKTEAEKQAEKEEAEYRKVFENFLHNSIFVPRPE
Insulin-like growth factor 1 receptor (Homo sapiens), sequence (P08069 741-1367 limits assumed): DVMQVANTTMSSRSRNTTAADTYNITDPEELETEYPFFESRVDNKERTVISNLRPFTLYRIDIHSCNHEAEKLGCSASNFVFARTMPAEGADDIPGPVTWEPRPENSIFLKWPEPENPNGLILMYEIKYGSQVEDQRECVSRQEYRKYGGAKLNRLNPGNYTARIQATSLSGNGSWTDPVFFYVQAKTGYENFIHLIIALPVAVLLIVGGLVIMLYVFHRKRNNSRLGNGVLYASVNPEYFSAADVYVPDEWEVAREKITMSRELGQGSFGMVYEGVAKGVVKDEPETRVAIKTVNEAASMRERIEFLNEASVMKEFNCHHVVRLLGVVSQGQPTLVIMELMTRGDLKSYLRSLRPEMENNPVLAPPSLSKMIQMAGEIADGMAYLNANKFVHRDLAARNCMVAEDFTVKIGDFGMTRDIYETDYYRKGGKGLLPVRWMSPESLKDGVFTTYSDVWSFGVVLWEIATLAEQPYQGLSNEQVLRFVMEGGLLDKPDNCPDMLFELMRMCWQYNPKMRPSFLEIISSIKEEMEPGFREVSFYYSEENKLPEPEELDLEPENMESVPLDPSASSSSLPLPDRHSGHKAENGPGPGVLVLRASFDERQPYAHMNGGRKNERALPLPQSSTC

[14] = molecular target: CDK2/Cyclin A2 (Homo sapiens) (UniProt P24941+P20248); assay: Inhibition of CDK2/cyclinA (unknown origin) at 100 nM; assay type: protein-complex assay
[15] = molecular target: T1, Inhibitor of nuclear factor kappa-B kinase subunit epsilon (Homo sapiens) (UniProt Q14164); assay: Inhibition of IKKepsilon (unknown origin) at 100 nM
T1 sequence (whole entry): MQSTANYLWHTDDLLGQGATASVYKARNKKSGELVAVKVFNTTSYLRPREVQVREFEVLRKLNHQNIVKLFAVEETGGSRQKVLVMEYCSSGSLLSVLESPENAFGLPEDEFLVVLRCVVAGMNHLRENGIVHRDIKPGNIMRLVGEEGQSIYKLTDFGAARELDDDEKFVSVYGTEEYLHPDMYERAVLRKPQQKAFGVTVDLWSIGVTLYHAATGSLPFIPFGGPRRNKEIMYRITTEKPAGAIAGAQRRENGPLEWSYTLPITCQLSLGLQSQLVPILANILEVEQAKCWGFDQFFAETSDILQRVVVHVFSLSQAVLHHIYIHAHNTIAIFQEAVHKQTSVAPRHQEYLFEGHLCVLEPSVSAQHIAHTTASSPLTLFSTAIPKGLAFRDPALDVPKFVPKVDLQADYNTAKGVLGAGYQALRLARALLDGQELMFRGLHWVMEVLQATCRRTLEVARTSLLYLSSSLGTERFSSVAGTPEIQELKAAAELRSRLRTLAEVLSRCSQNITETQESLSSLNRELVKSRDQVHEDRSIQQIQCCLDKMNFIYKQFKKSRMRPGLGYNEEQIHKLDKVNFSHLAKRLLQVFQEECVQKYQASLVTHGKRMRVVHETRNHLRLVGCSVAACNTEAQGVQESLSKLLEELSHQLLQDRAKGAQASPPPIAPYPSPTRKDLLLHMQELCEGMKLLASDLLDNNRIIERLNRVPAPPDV

[16] = molecular target: Protein-tyrosine kinase 2-beta (Homo sapiens) (UniProt Q14289); assay: Inhibition of FAK2 (unknown origin) at 100 nM
[17] = molecular target: Tyrosine-protein kinase Lck (Homo sapiens) (UniProt P06239); assay: Inhibition of LCK (unknown origin) at 100 nM
Tyrosine-protein kinase Lck (Homo sapiens), sequence (P06239 2-509 limits assumed): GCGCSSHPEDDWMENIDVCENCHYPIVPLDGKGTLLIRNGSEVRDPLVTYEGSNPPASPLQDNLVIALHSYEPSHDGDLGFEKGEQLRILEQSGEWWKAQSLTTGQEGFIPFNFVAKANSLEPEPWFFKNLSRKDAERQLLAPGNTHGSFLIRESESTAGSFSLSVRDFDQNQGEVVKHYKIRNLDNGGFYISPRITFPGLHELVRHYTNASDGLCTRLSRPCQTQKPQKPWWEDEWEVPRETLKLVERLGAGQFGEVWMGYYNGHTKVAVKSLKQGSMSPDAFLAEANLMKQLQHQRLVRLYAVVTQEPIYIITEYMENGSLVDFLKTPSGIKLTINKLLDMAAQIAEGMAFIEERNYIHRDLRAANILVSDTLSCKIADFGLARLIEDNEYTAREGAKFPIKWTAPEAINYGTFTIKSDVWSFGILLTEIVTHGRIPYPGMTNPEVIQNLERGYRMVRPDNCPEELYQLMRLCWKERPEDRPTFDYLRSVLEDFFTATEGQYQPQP

[18] = molecular target: Glycogen synthase kinase-3 beta (Homo sapiens) (UniProt P49841); assay: Inhibition of GSK3beta (unknown origin) at 100 nM
Glycogen synthase kinase-3 beta (Homo sapiens), sequence (P49841 whole entry, looked up): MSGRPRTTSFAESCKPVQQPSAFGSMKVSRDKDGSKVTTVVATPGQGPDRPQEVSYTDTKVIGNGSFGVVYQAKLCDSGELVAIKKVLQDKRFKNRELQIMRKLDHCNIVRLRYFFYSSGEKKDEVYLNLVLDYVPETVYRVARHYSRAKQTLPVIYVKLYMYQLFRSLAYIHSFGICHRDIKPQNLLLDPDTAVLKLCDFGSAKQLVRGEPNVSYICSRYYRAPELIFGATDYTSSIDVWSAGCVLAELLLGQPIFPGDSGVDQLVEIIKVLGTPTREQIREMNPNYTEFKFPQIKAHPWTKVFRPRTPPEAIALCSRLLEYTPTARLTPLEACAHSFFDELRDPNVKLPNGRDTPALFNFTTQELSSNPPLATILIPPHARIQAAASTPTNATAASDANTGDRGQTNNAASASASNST

[19] = Plasma clearance in iv dosed rat; assay type: ADME, organism-based
[20] = molecular target: 5'-AMP-activated protein kinase catalytic subunit alpha-1 (Homo sapiens) (UniProt Q13131); assay: Inhibition of PRKAA1 (unknown origin) at 100 nM
[21] = tested on: Epidermal growth factor receptor (Homo sapiens), P00533 [T790M]; assay: Inhibition of EGFR T790M mutant (unknown origin) at 100 nM; assay type: protein assay
Epidermal growth factor receptor (Homo sapiens), P00533 [T790M], sequence (P00533 whole entry T790M): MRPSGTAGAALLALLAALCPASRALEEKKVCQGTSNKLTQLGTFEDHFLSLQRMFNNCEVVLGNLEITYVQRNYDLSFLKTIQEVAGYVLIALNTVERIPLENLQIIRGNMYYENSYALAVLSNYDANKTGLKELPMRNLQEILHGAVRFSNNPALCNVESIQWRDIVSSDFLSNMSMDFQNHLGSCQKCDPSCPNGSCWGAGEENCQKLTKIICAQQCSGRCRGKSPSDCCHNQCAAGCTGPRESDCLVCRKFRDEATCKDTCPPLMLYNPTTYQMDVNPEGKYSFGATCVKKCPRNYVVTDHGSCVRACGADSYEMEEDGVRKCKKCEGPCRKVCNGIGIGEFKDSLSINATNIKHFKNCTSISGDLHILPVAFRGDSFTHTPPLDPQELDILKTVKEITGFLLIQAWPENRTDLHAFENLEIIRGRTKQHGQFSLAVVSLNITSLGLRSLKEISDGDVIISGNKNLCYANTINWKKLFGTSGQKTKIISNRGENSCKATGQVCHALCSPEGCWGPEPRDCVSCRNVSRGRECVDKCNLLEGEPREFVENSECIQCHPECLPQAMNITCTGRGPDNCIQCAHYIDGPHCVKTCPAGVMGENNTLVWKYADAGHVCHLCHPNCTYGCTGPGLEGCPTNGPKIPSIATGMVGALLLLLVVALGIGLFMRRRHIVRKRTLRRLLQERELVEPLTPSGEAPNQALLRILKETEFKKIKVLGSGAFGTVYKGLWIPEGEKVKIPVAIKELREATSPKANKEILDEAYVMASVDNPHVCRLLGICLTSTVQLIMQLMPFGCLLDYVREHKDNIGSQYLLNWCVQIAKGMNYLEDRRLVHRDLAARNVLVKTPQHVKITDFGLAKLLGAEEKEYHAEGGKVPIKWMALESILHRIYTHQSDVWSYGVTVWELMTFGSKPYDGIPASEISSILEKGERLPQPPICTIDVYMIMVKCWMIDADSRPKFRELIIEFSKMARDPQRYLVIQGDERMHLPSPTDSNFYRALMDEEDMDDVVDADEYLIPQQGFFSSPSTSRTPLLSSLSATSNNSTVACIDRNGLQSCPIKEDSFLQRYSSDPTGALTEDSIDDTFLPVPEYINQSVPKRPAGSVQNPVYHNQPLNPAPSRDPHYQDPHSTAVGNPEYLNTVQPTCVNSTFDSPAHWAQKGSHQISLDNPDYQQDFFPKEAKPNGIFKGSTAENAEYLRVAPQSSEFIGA

[22] = molecular target: MAP kinase-activated protein kinase 2 (Homo sapiens) (UniProt P49137); assay: Inhibition of MAPKAPK2 (unknown origin) at 100 nM
[23] = molecular target: Tyrosine-protein kinase JAK1 (Homo sapiens) (UniProt P23458); assay: Inhibition of JAK1 (unknown origin) at 100 nM
Hepatocyte = assay: Drug metabolism in rat hepatocytes assessed as glucuronidation; assay type: ADME, cell-based
[24] = molecular target: Dual specificity mitogen-activated protein kinase kinase 1 (Homo sapiens) (UniProt Q02750); assay: Inhibition of MEK1 (unknown origin) at 100 nM
[25] = molecular target: Tyrosine-protein kinase JAK2 (Homo sapiens) (UniProt O60674); assay: Inhibition of JAK2 (unknown origin) at 100 nM
[26] = molecular target: Vascular endothelial growth factor receptor 2 (Homo sapiens) (UniProt P35968); assay: Inhibition of KDR (unknown origin) at 100 nM
[27] = molecular target: Ribosomal protein S6 kinase alpha-1 (Homo sapiens) (UniProt Q15418); assay: Inhibition of RSK1 (unknown origin) at 100 nM
[28] = tested on: Epidermal growth factor receptor (Homo sapiens), P00533 [L858R,T790M]; assay: Inhibition of EGFR T790M/L858R double mutant (unknown origin) at 100 nM; assay type: protein assay
[29] = molecular target: Tyrosine-protein kinase Fyn (Homo sapiens) (UniProt P06241); assay: Inhibition of FYN (unknown origin) at 100 nM
[30] = molecular target: Serine/threonine-protein kinase Chk1 (Homo sapiens) (UniProt O14757); assay: Inhibition of CHK1 (unknown origin) at 100 nM
[31] = molecular target: Homeodomain-interacting protein kinase 1 (Homo sapiens) (UniProt Q86Z02); assay: Inhibition of HIPK1 (unknown origin) at 100 nM
[32] = molecular target: Cytoplasmic tyrosine-protein kinase BMX (Homo sapiens) (UniProt P51813); assay: Inhibition of BMX (unknown origin) at 100 nM
[33] = molecular target: Tyrosine-protein kinase Fes/Fps (Homo sapiens) (UniProt P07332); assay: Inhibition of FES (unknown origin) at 100 nM
[34] = molecular target: CDK9/Cyclin K (Homo sapiens) (UniProt P50750+O75909); assay: Inhibition of CDK9/cyclinK (unknown origin) at 100 nM; assay type: protein-complex assay

CC1(C)OCc2c(Nc3n[nH]c4c(Cl)cccc34)nc(-c3cn[nH]c3)nc21
Papp A→B [1]: 9.5 ×10⁻⁶ cm/s | inhibition [2]: 3.5% | inhibition [3]: 11.1% | inhibition [4]: 2% | inhibition [5]: 2.3% | inhibition [6]: -4% | inhibition [7]: 11.7% | inhibition [8]: -3.5% | inhibition [9]: 17% | inhibition [10]: 93.7% | inhibition [11]: 2% | inhibition [12]: 94.6% | inhibition [13]: 13.5% | inhibition [14]: 5.3% | inhibition [15]: 3.2% | inhibition [16]: 9.1% | inhibition [17]: 86.9% | inhibition [18]: 61% | clearance [19]: 74 mL/min/kg | inhibition [20]: 27.8% | inhibition [21]: 91.3% | inhibition [22]: 2.1% | inhibition [23]: 3.5% | Drug metabolism (Hepatocyte): metabolite_detected | inhibition [24]: 4.3% | inhibition [25]: 8.8% | inhibition [26]: 99.3% | inhibition [27]: 19.5% | inhibition [28]: 91.5% | inhibition [29]: 82% | inhibition [30]: 5.3%

CC1(C)OCc2c(Nc3n[nH]c4ccccc34)nc(-c3cn[nH]c3)nc21
Papp A→B [1]: 6.7 ×10⁻⁶ cm/s | inhibition [2]: 9.2% | inhibition [3]: 3.5% | inhibition [4]: 4% | inhibition [5]: 0.8% | inhibition [6]: 6.8% | inhibition [7]: 7.9% | inhibition [31]: -2% | inhibition [32]: 13.7% | inhibition [8]: 1.2% | inhibition [9]: 19.8% | inhibition [10]: 97.4% | inhibition [11]: 4.9% | inhibition [12]: 88.1% | inhibition [13]: 4.4% | inhibition [14]: 1.9% | inhibition [15]: -8.7% | inhibition [33]: 6% | inhibition [16]: 9.7% | inhibition [17]: 50.6% | inhibition [34]: -3.7% | inhibition [18]: 41.9% | clearance [19]: 86 mL/min/kg | inhibition [20]: -3.1% | inhibition [21]: 95.2% | inhibition [22]: 1.9% | inhibition [23]: 7.7% | inhibition [24]: 2% | inhibition [25]: 9.8% | inhibition [26]: 97.2% | inhibition [27]: 13.9% | inhibition [28]: 95.9% | inhibition [29]: 79.6% | inhibition [30]: 2.7%
